Entries after “also recorded” stand apart in the source; their conditions may differ.
Legend:
bovine cornea [1] = test: Whole eye experiment: Ca^2+ extraction from cornea, analysed by atomic absorption spectrometry; conditions: chelator 1 mg mL^−1 in PBS pH 7.4 ± 0.2, 3 h exposure of whole bovine eye cornea, 34 °C, n = 3; PBS alone 54.67 ± 7.04 ppm
Method: Calcium ion analysis was conducted using a novAA 350 system with […] software, version 4.5.0 (Analytik JENA, Germany). […] Quantitation achieved by reference to a calibration curve produced from Ca^2+ standards in ultrapure water incorporating 5% w/v lanthanum chloride as a releasing agent.

bovine cornea epithelium = test: Corneal integrity: fluorescence microscopy of DAPI-stained cornea sections after exposure; conditions: chelator 1 mg mL^−1 in PBS pH 7.4 ± 0.2, 3 h exposure; PBS shows no disruption
Method: A Franz diffusion cell donor chamber was placed on the cornea as a means to contain the dose; the setup was wrapped in cling-film ensuring a good seal between the donor chamber and the cornea; these were placed in a water bath at 34 ± 1 °C. Individual eyes were exposed to PBS or solutions of EDTA, EGTA or EDDS at 1 mg mL^−1 in PBS, all at pH 7.4 ± 0.2 by placing 1 mL solution onto the cornea.
From the above experiment, corneas were dissected after exposure, and sections were prepared for microscopy by setting cornea segments in OCT, quick freezing on dry ice and subsequent sectioning. […] Specimens were stained using Vectashield with DAPI mounting medium, and a glass coverslip applied. All cornea sections were examined within seven days of preparation using an AXIOCAM MRm 1.3 MP digital camera attached to a Zeiss AXIO Imager A1 fluorescent microscope, using AXIO Vs 40 V.4.8.2.0 software (Zeiss, Oberkochen, Germany). A 10× magnification eyepiece together with a 5× magnification objective lens was employed, and DAPI fluorescence filter was selected.

bovine cornea [2] = test: Transepithelial electrical resistance (TEER) of cornea in Ussing chambers; conditions: chelator 1 mg mL^−1 in PBS in donor chamber, 120 min, 34 °C, baseline deducted; initial 2.28 ± 0.06, PBS control 1.93 ± 0.04
bovine cornea [3] = test: Corneal permeability of riboflavin in Franz diffusion cells; assay type: in vitro ADME; design: Steady-state flux of riboflavin / Papp at 240 min: dose or concentration left out as unconfirmed
Method: (§1) Analysis was conducted using a PerkinElmer series 200 HPLC system comprising of 785 A UV-vis detector, series 200 quaternary pump and series 200 autosampler (PerkinElmer Inc., UK), Hamilton PRP-1 reversed phase column, 150 mm × 4.1 mm, 10 μm (part number: 79425) and data acquisition software ([…], version 4.09, SRI Inc., USA). […] Bovine corneas were mounted in Franz diffusion cells (FDC), epithelium side facing the donor compartment. The receiver compartment was filled with pre-warmed and degassed PBS (16.5 mL). […] Riboflavin is known to be photodegradable ([Terekhova et al., 2011]), therefore the whole experiment was shielded with aluminium foil. Sink conditions were employed with 0.4 mL aliquots taken every 60 min for 240 min. HPLC analysis was carried out immediately after all samples had been collected to avoid drug degradation.

[4] = as above; assay type: in vitro ADME, bovine; design: Steady-state flux of riboflavin / Papp at 240 min: dose or concentration left out as unconfirmed; conditions: bovine, pH 7.4
Method: as §1

bovine cornea [5] = test: Cornea extracts: riboflavin absorbed into cornea, ethanol extraction and HPLC; assay type: in vitro ADME; conditions: n = 3; for Riboflavin pg mg^−1 cornea: riboflavin in PBS pH 7.4 ± 0.2 without chelator
Method: Analysis was conducted using a PerkinElmer series 200 HPLC system comprising of 785 A UV–vis detector, series 200 quaternary pump and series 200 autosampler (PerkinElmer Inc., UK), Hamilton PRP-1 reversed phase column, 150 mm × 4.1 mm, 10 μm (part number: 79425) and data acquisition software (Peaksimple, version 4.09, SRI Inc., USA). […] Isocratic conditions were used at 25 °C with the mobile phase comprising of 20% ethanol and 80% ion-pair buffer, flow rate 0.8 mL min^−1, 10 μL injection volume, UV detector at 267 nm corresponding to riboflavin absorption λmax, a retention time of 3.05 min. Quantitation was achieved by reference to a calibration curve produced from riboflavin standards in PBS, pH 7.4 ± 0.2 at concentrations ranging from 0.01 to 25 μg mL^−1 (r^2 = 0.9996).
Corneas from the riboflavin permeability experiment were trimmed of sclera, gently blotted with tissue paper, weighed and placed in glass vials to which 5 mL absolute ethanol was added to extract absorbed riboflavin. Differences in its accumulation within the corneas between different solutions were compared. The vials were stored at room temperature shielded from light for three days. From these vials, 1 mL of extract solvent was centrifuged at 10,000 rpm for 10 min, and the supernatant transferred to autosample vials for HPLC analysis.

For O=C(O)CC(NCCNC(CC(=O)O)C(=O)O)C(=O)O (stereo not drawn) [EDDS, ethylenediamine-N,N′-disuccinic acid], the “calcium sequestering performance from bovine cornea (Ca^2+ concentration in solution)” value (from here on “calcium sequestering performance”) (bovine cornea [1]) was 87.60 ± 3.30 ppm, the “histological changes of corneal epithelium” value (shortened to “histological changes”) (bovine cornea epithelium) was “some swelling with voids throughout this layer” and the “TEER value after 2 h” value (bovine cornea [2]) was 1.62 ± 0.04 kΩ cm^2.

For O=C(O)CN(CCN(CC(=O)O)CC(=O)O)CC(=O)O [EDTA, Ethylenediaminetetraacetic acid], the “calcium sequestering performance” value (bovine cornea [1]) was 98.97 ± 9.86 ppm, the “histological changes” value (bovine cornea epithelium) was “some swelling with voids throughout this layer; also recorded: perforation seems to penetrate the whole of the epithelium” and the “TEER value after 2 h” value (bovine cornea [2]) was 1.38 ± 0.03 kΩ cm^2.

With O=C(O)CN(CCOCCOCCN(CC(=O)O)CC(=O)O)CC(=O)O [EGTA, ethylene glycol-bis(2-aminoethylether)-N,N,N′,N′-tetraacetic acid] the “calcium sequestering performance” value (bovine cornea [1]) was 119.57 ± 27.28 ppm, the “histological changes” value (bovine cornea epithelium) was “intense disruption to the superficial epithelial layers and a relatively undisturbed basal layer” and the “TEER value after 2 h” value (bovine cornea [2]) was 1.42 ± 0.02 kΩ cm^2.

In the case of Cc1cc2nc3c(=O)[nH]c(=O)nc-3n(C[C@H](O)[C@H](O)[C@H](O)CO)c2cc1C [Riboflavin, riboflavin], the “concentration of riboflavin in the receiving solution at 240 min” value (bovine cornea [3]; riboflavin 0.1 mg mL^−1 in PBS pH 7.4 without chelator, 34 °C) is reported as 5.74 ± 0.96 ng/mL, the “Steady-state flux of riboflavin” value (bovine cornea [3]; riboflavin solution in PBS without chelator) is reported as 0.0478 ± 0.0080 µmol/min and the Papp at 240 min [4] is reported as 1940 ± 325 ×10⁻⁶ cm/s. The “mean amount of riboflavin extracted from cornea” value (bovine cornea [5]; corneas after permeability experiment, riboflavin 0.1 mg mL^−1 in PBS without chelator) was 50.41 ± 2.80 ng, the “Riboflavin pg mg^−1 cornea” value (bovine cornea [5]) was 62.46 ± 0.98 pg/mg and the “Riboflavin pg mg^−1 cornea” value (bovine cornea [5]; listed as riboflavin) was 62.46 pg/mg.

From PMC4111866, “Enhancement in corneal permeability of riboflavin using calcium sequestering compounds” (International Journal of Pharmaceutics, 2014)
